What was measured:
KRAS G12C [1] = biological target: T1, KRAS G12C (Homo sapiens, UniProt P01116, G12C); experiment: Cell Activity Assay: accumulation of GDP-bound KRAS G12C in MIAPaCa-2 cells (Raf-1 RBD capture, MSD readout); assay type: cell-based; parameters: endogenous in cells; host or cells: MIAPaCa-2; conditions: 6 hours, assay limit is 30.00
In short: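 IC50 came from a 4-parameter fit of Ras signal normalized between DMSO and full-inhibition controls. Readout: lysate GTP-Ras bound to immobilized Raf-1 RBD, quantified with pan-Ras antibody and MSD electrochemiluminescence. Lysates derived from MIAPaCa-2 cells treated 6 h with serially diluted compound, 0.3% DMSO.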

KRAS G12C [2] = biological target: T1, KRAS G12C; experiment: Cell Activity Assay: IC50 in H358 cells; assay type: cell-based; parameters: endogenous in cells
Method: Compounds presented in the present invention lead to the accumulation of the GDP bound Ras upon treatment of human cancer cell line.
The accumulation of the GDP-bound KRAS G12C in cellular environment was measured based on the principle that KRAS G12C only binds to its downstream kinase; Raf-1 (MAP Kinase Kinase Kinase), when in its active-GTP bound state. In this state, Ras binded to a domain of Raf-1 kinase referred to as the Ras Binding Domain (RBD).
Raf-1 RBD (LJIC-1988A1) was diluted to 100 ng/well in PBS and 5 μl/well was spot coated onto MSD high bind SECTOR plates (L15XB). Plates were incubated at room temperature for 1 hour on an orbital shaker. Plates were washed with PBS/0.05% Tween-20 and 50 μl/well of thawed lysate samples were added, followed by 50 μl of 1% MSD Blocker A in PBS/0.05 Tween-20 (R93BA). Plates were incubated for 1 hour on an orbital shaker and washed with PBS/0.05% Tween-20. 25 μl/well of Anti-pan-Ras Antibody (Cell Biolabs 244003) diluted 1:3000 was added in 1% MSD Blocker A solution and plates were incubated for 1 hour on an orbital shaker and washed with PBS/0.05% Tween-20. SULFO-TAG goat anti-mouse secondary antibody (MSD R32AC) was diluted 1:500 in MSD Blocker A solution and added at 25 μL/well. Plates were incubated for 1 hour on an orbital shaker and washed with PBS/0.05% Tween-20. 150 μl/well of Read Buffer T (MSD R92TC) diluted 1:3 in H2O was added and plates were read on a Meso Scale Discovery Sector Imager S600.
KRAS signal was normalized to maximum inhibition and DMSO control values, and IC50 values were generated using a 4 parameter fit of the dose response curve. The decrease in IC50 reflects that the exemplary compound lead to a higher level of accumulation of GDP-bound KRAS G12C than another exemplary compounds at specific timepoint of treatment of cancer cell line.

[3] = biological target: T2, GDP-loaded KRAS (1-169) G12C, C51S, C80L, C118S (Homo sapiens, UniProt P01116, C118S/C51S/C80L/G12C); experiment: Mass Spectrometry Reactivity Assay (MSRA): covalent adduct of compound and KRAS G12C, Percent Modification; assay type: binding; conditions: for MSRA (% modification) 5.0 μM 0.25 hr / MSRA (% modification) 5.0 μM 0.017 hr: 5.0 μM compound; for MSRA (% modification) 10 μM 0.25 hr / MSRA (% modification) 10 μM 0.50 hr: 10 μM compound
T2 construct: GDP-loaded KRAS (1-169) G12C, C51S, C80L, C118S
In short: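 Covalent labelling is measured by intact mass: deconvoluted modified and unmodified peak intensities yield percent modification. Compound, usually 5 μM or 10 μM final, reacts at room temperature with 5 μM GDP-bound KRAS G12C (1-169, C51S/C80L/C118S) in Hepes pH 7.5/NaCl/glycerol, sampled at 1, 15, 30, 60 min.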

Row | IC50 (KRAS G12C [1]) | IC50 (KRAS G12C [2]) | MSRA (% modification) 5.0 μM 0.25 hr [3] | MSRA (% modification) 10 μM 0.25 hr [3] | MSRA (% modification) 10 μM 0.50 hr [3] | MSRA (% modification) 5.0 μM 0.017 hr [3] | SMILES
1 | 0.23 µM | 0.501 µM | 67% | 79% | 82% |  | C=CC(=O)N1CCN(c2nc(OC[C@@H]3CCCN3C)nc3c(Oc4c(C)ccc5[nH]ncc45)cccc23)CC1 [Example 07E, 1-[4-(8-[(5-methyl-1H-indazol-4-yl)oxy]-2-{[(2S)-1-methylpyrrolidin-2-yl]methoxy}quinazolin-4-yl)piperazin-1-yl]prop-2-en-1-one]
2 | 0.069 µM | 0.123 µM |  | 81% |  |  | C=CC(=O)N1CCN(c2nc(OC[C@@H]3CCCN3C)nc3c(Oc4c(Cl)ccc5[nH]ncc45)nc(Cl)cc23)CC1 [Example 09G, 1-[4-(6-chloro-8-[(5-chloro-1H-indazol-4-yl)oxy]-2-{[(2S)-1-methylpyrrolidin-2-yl]methoxy}pyrido[3,4-d]pyrimidin-4-yl)piperazin-1-yl]prop-2-en-1-one]
3 | 0.892 µM | 2.56 µM |  | 44% | 68% |  | C=CC(=O)N1CCN(c2ncnc3c(Oc4c(Cl)c(C)cc5[nH]ncc45)nccc23)CC1 [Example 11A, 1-(4-{8-[(5-chloro-6-methyl-1H-indazol-4-yl)oxy]pyrido[3,4-d]pyrimidin-4-yl}piperazin-1-yl)prop-2-en-1-one]
4 | 0.102 µM | 0.448 µM |  | 77% |  |  | C=CC(=O)N1CCN(c2nc(OCC3CCCO3)nc3c(Oc4c(Cl)c(F)cc5[nH]ncc45)nc(Cl)cc23)CC1 (stereo not drawn) [Example 11G, 1-(4-{6-chloro-8-[(5-chloro-6-fluoro-1H-indazol-4-yl)oxy]-2-(tetrahydrofuran-2-ylmethoxy)pyrido[3,4-d]pyrimidin-4-yl}piperazin-1-yl)prop-2-en-1-one]
5 | 0.034 µM | 0.087 µM | 88% | 81% | 84% | 43% | C=CC(=O)N1CCN(c2nc(OC[C@H]3CN(C)C[C@@H]3OC)nc3c(Oc4c(Cl)c(F)cc5[nH]ncc45)nc(Cl)cc23)CC1 [Example 18G, 1-[4-(6-chloro-8-[(5-chloro-6-fluoro-1H-indazol-4-yl)oxy]-2-{[(3R,4R)-4-methoxy-1-methylpyrrolidin-3-yl]methoxy}pyrido[3,4-d]pyrimidin-4-yl)piperazin-1-yl]prop-2-en-1-one]
6 | 0.051 µM | 0.109 µM |  | 60% |  |  | C=CC(=O)N1CCN(c2nc(OC[C@@H]3CN(C)C[C@H]3OC)nc3c(Oc4c(Cl)c(F)cc5[nH]ncc45)nc(Cl)cc23)CC1 [Example 19G, 1-[4-(6-chloro-8-[(5-chloro-6-fluoro-1H-indazol-4-yl)oxy]-2-{[(3S,4S)-4-methoxy-1-methylpyrrolidin-3-yl]methoxy}pyrido[3,4-d]pyrimidin-4-yl)piperazin-1-yl]prop-2-en-1-one]
7 | 0.255 µM | 0.758 µM | 85% | 73% | 80% |  | C=CC(=O)N1CCN(c2ncnc3c(Oc4c(Cl)c(F)cc5[nH]ncc45)nc(Cl)cc23)CC1 [Example 20A, 1-(4-{6-chloro-8-[(5-chloro-6-fluoro-1H-indazol-4-yl)oxy]pyrido[3,4-d]pyrimidin-4-yl}piperazin-1-yl)prop-2-en-1-one]
8 | 0.08 µM | 0.152 µM |  | 79% |  | 26% | C=CC(=O)N1CCN(c2nc(OC[C@@H]3C[C@H](OC)CN3C)nc3c(Oc4c(Cl)c(F)cc5[nH]ncc45)nc(Cl)cc23)CC1 [Example 20G, 1-[4-(6-chloro-8-[(5-chloro-6-fluoro-1H-indazol-4-yl)oxy]-2-{[(2S,4S)-4-methoxy-1-methylpyrrolidin-2-yl]methoxy}pyrido[3,4-d]pyrimidin-4-yl)piperazin-1-yl]prop-2-en-1-one]

Source: patent US10662204B2 (PFIZER INC., priority 2018, dated 2020)
